Tests used:
Type in all cases: in vivo
Settings in all cases: 14 days after application
[1] = system: soybean (Glycine max L., var. Pella 86, SOY); assay: Post-emerge greenhouse screening, crop safety (phytotoxicity rating)
How it was run: (§1)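 Plants grown in sandy loam pots received acetone solutions of compound by moving-nozzle track sprayer, 15–1000 g ai/ha. In post-emergence runs the foliage was at the 2-3 leaf stage and spray contained 0.25% v/v non-ionic surfactant. Damage was assessed visually after 14 days (0-100).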

[2] = system: upland rice (Oryza sp., var.Tebonnet, RICE); assay: as above
How it was run: as §1

[3] = system: green foxtail (Setaria viridis, SETVI); assay: Pre-emerge greenhouse herbicide activity screening, phytotoxicity rating
How it was run: as §1

[4] = system: common ragweed (Ambrosia artemisiifolia L., AMBEL); assay: as above
How it was run: as §1

[5] = system: johnsongrass (Sorghum halepense, SORHA); assay: as above
How it was run: as §1

[6] = system: lambsquarters (Chenopodium album, CHEAL); assay: as above
How it was run: as §1

[7] = system: redroot pigweed (Amaranthus retroflexus, AMARE); assay: as above
How it was run: as §1

[8] = system: barnyardgrass (Echinochloa crus-galli, ECHCG); assay: as above
How it was run: as §1

[9] = system: sicklepod (Cassia obtusifolia, CASOB); assay: as above
How it was run: as §1

[10] = system: velvetleaf (Abutilon theophrasti, ABUTH); assay: as above
How it was run: as §1

[11] = system: ivyleaf morningglory (Ipomoea hederacea, IPOHE); assay: as above
How it was run: as §1

[12] = system: large crabgrass (Digitaria sanguinalis, DIGSA); assay: as above
How it was run: as §1

[13] = system: green foxtail (Setaria viridis, SETVI); assay: Post-emerge greenhouse herbicide activity screening, phytotoxicity rating
How it was run: as §1

[14] = system: common ragweed (Ambrosia artemisiifolia L., AMBEL); assay: as above
How it was run: as §1

[15] = system: johnsongrass (Sorghum halepense, SORHA); assay: as above
How it was run: as §1

[16] = system: lambsquarters (Chenopodium album, CHEAL); assay: as above
How it was run: as §1

[17] = system: redroot pigweed (Amaranthus retroflexus, AMARE); assay: as above
How it was run: as §1

[18] = system: barnyardgrass (Echinochloa crus-galli, ECHCG); assay: as above
How it was run: as §1

[19] = system: sicklepod (Cassia obtusifolia, CASOB); assay: as above
How it was run: as §1

[20] = system: velvetleaf (Abutilon theophrasti, ABUTH); assay: as above
How it was run: as §1

[21] = system: ivyleaf morningglory (Ipomoea hederacea, IPOHE); assay: as above
How it was run: as §1

[22] = system: large crabgrass (Digitaria sanguinalis, DIGSA); assay: as above
How it was run: as §1

[23] = system: soybean (Glycine max L., var. Pella 86, SOY); assay: Pre-emerge greenhouse screening, crop safety (phytotoxicity rating)
How it was run: as §1

[24] = system: field corn (Zea mays L., var. Dekalb 535, CORN); assay: as above
How it was run: as §1

[25] = system: upland rice (Oryza sp., var.Tebonnet, RICE); assay: as above
How it was run: as §1

[26] = system: field corn (Zea mays L., var. Dekalb 535, CORN); assay: Post-emerge greenhouse screening, crop safety / corn selectivity (phytotoxicity rating)
How it was run: as §1

Fc1cc(Cl)c(Oc2ncccn2)cc1-c1nn2c(c1Cl)CCCC2 [Compound 6-1, 3-Chloro-2-[4-chloro-2-fluoro-5-(2-pyrimidinyloxy)phenyl]-4,5,6,7-tetrahydro-pyrazolo[1,5-a]pyridine]
25: SOY crop damage, phytotoxicity rating (0-100 scale) ([23]; 125 g ai/ha)
95: SOY crop damage, phytotoxicity rating (0-100 scale) ([1]; 125 g ai/ha) | RICE crop damage, phytotoxicity rating (0-100 scale) ([2]; 250 g ai/ha) | SORHA phytotoxicity rating (0-100 scale) ([15]; 250 g ai/ha) | RICE crop damage, phytotoxicity rating (0-100 scale) ([25]; 250 g ai/ha)
75: SORHA phytotoxicity rating (0-100 scale) ([15]; 125 g ai/ha)
90: RICE crop damage, phytotoxicity rating (0-100 scale) ([2]; 125 g ai/ha) | AMBEL phytotoxicity rating (0-100 scale) ([14]; 250 g ai/ha) | ECHCG phytotoxicity rating (0-100 scale) ([18]; 125 g ai/ha) | DIGSA phytotoxicity rating (0-100 scale) ([22]; 125 g ai/ha)
10: CORN crop damage, phytotoxicity rating (0-100 scale) ([26]; 125 g ai/ha)
85: AMBEL phytotoxicity rating (0-100 scale) ([14]; 125 g ai/ha) | RICE crop damage, phytotoxicity rating (0-100 scale) ([25]; 125 g ai/ha)
60: SOY crop damage, phytotoxicity rating (0-100 scale) ([23]; 250 g ai/ha)
20: CORN crop damage, phytotoxicity rating (0-100 scale) ([26]; 250 g ai/ha)
50: CORN crop damage, phytotoxicity rating (0-100 scale) ([24]; 250 g ai/ha)
100: SOY crop damage, phytotoxicity rating (0-100 scale) ([1]; 250 g ai/ha) | SETVI phytotoxicity rating (0-100 scale) ([3]; 125 g ai/ha) | SETVI phytotoxicity rating (0-100 scale) ([3]; 250 g ai/ha) | AMBEL phytotoxicity rating (0-100 scale) ([4]; 125 g ai/ha) | AMBEL phytotoxicity rating (0-100 scale) ([4]; 250 g ai/ha) | SORHA phytotoxicity rating (0-100 scale) ([5]; 125 g ai/ha) | SORHA phytotoxicity rating (0-100 scale) ([5]; 250 g ai/ha) | CHEAL phytotoxicity rating (0-100 scale) ([6]; 125 g ai/ha) | CHEAL phytotoxicity rating (0-100 scale) ([6]; 250 g ai/ha) | AMARE phytotoxicity rating (0-100 scale) ([7]; 125 g ai/ha) | AMARE phytotoxicity rating (0-100 scale) ([7]; 250 g ai/ha) | ECHCG phytotoxicity rating (0-100 scale) ([8]; 250 g ai/ha) | CASOB phytotoxicity rating (0-100 scale) ([9]; 125 g ai/ha) | CASOB phytotoxicity rating (0-100 scale) ([9]; 250 g ai/ha) | ABUTH phytotoxicity rating (0-100 scale) ([10]; 125 g ai/ha) | ABUTH phytotoxicity rating (0-100 scale) ([10]; 250 g ai/ha) | IPOHE phytotoxicity rating (0-100 scale) ([11]; 250 g ai/ha) | DIGSA phytotoxicity rating (0-100 scale) ([12]; 125 g ai/ha) | DIGSA phytotoxicity rating (0-100 scale) ([12]; 250 g ai/ha) | SETVI phytotoxicity rating (0-100 scale) ([13]; 125 g ai/ha) | SETVI phytotoxicity rating (0-100 scale) ([13]; 250 g ai/ha) | CHEAL phytotoxicity rating (0-100 scale) ([16]; 125 g ai/ha) | CHEAL phytotoxicity rating (0-100 scale) ([16]; 250 g ai/ha) | AMARE phytotoxicity rating (0-100 scale) ([17]; 125 g ai/ha) | AMARE phytotoxicity rating (0-100 scale) ([17]; 250 g ai/ha) | ECHCG phytotoxicity rating (0-100 scale) ([18]; 250 g ai/ha) | CASOB phytotoxicity rating (0-100 scale) ([19]; 125 g ai/ha) | CASOB phytotoxicity rating (0-100 scale) ([19]; 250 g ai/ha) | ABUTH phytotoxicity rating (0-100 scale) ([20]; 125 g ai/ha) | ABUTH phytotoxicity rating (0-100 scale) ([20]; 250 g ai/ha) | IPOHE phytotoxicity rating (0-100 scale) ([21]; 125 g ai/ha) | IPOHE phytotoxicity rating (0-100 scale) ([21]; 250 g ai/ha)
99: ECHCG phytotoxicity rating (0-100 scale) ([8]; 125 g ai/ha) | IPOHE phytotoxicity rating (0-100 scale) ([11]; 125 g ai/ha)
40: CORN crop damage, phytotoxicity rating (0-100 scale) ([24]; 125 g ai/ha)
98: DIGSA phytotoxicity rating (0-100 scale) ([22]; 250 g ai/ha)

Source: patent US6613718B2, “Aryl ether derivatives and processes for their preparation and herbicidal and desiccant compositions containing them” (Ishihara Sangyo Kaisha, Ltd., priority 2001, dated 2003)
